Laboratory results taken from paper PMC12152147, “DDB1 engagement defines the selectivity of S656 analogs for cyclin K degradation over CDK inhibition” (EMBO Reports, 2025).
Several values for one entry are separate records, joined by “and”; a condition that tells them apart may be missing. Equal entries are not always repeated. Where two headings read alike, the source gives them in different places.

Experiments:
OCI-AML5 cells = assay: Dose-response proliferative assay in OCI-AML5 (4 days, CellTiterGlo); format: cell-based, H. sapiens; conditions: OCI-AML5 cells; read-out: IC50 in AML5
Method in brief: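 Viability assessed after 4 days of compound exposure at 37 °C, 5% CO2. Compounds tested as 8 dilutions (1:4, 10 μM to 0.5 nM) on 300 OCI-AML5 cells/well grown in αMEM with 10% heat-inactivated FBS and 10 ng/mL GM-CSF.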

primary AML specimens = assay: Dose-response assays in primary AML specimens (6 days, CellTiterGlo); format: cell-based, human; conditions: 6 days, read-out: IC50
Procedure: Freshly thawed primary AML specimens were used for chemical screens. Cryopreserved cells were thawed at 37 °C in IMDM containing 20% FBS and DNase I (100 μg/mL). Cells were resuspended in IMDM supplemented with 15% BIT (BSA, insulin, transferrin; StemCell Technologies), 100 ng/mL SCF, 50 ng/mL FLT3L, 20 ng/mL IL3, 20 ng/mL G-CSF, 10^−4 mol/L b-mercaptoethanol, gentamicin (50 μg/mL), ciprofloxacin (10 μg/mL), SR1 (500 nmol/L) and UM729 (500 nmol/L). Cells were plated in 384-well white plates, 5000 cells per well in 50 μL. Compounds were dissolved in DMSO, diluted in media immediately before use and added to seeded cells at the unique concentration of 1 μM. Control wells received DMSO (0.1%) only. Cell viability was evaluated after 6 days in culture using the CellTiterGlo assay according to the manufacturer’s instruction. Percentage of inhibition for dose response curves was calculated as 100 – (100 × (mean luminescence [compound]/mean luminescence [DMSO])). Dose response curves were generated using nonlinear regression in GraphPad Prism version.
Dose-response assays in primary AML specimens were performed as in chemical screen (see above) with the exception that compounds were tested in serial dilution (8 dilutions, 1:4, 10 μM down to 0.5 nM). Dose-response assays in OCI-AML5 cell line were conducted similarly with the following modifications: 300 cells per well were seeded in 50 μL of cell line media and cell viability was evaluated after 4 days in culture.

cyclin KeGFP = assay: Cyclin KeGFP reporter system (eGFP/mCherry MFI by flow cytometry);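 for % degradation cyclin K-eGFP: 10 μM compound for 3 h relative to DMSO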; format: cell-based, H. sapiens
Method in brief: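 Degradation read as eGFP-to-mCherry MFI ratio relative to DMSO controls, from flow cytometry of the selected G7 clone of OCI-AML5 cells transduced with the cyclin KeGFP reporter.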

CDK9/CyclinT = target: T1, CDK9/CyclinT (Homo sapiens, UniProt P50750); assay: CDK9/CyclinT in vitro kinase activity, single concentration 1 μM; format: biochemical; conditions: single concentration 1 μM
T1 construct: purchased BPS Bioscience 79628
T1 sequence (P50750 whole entry): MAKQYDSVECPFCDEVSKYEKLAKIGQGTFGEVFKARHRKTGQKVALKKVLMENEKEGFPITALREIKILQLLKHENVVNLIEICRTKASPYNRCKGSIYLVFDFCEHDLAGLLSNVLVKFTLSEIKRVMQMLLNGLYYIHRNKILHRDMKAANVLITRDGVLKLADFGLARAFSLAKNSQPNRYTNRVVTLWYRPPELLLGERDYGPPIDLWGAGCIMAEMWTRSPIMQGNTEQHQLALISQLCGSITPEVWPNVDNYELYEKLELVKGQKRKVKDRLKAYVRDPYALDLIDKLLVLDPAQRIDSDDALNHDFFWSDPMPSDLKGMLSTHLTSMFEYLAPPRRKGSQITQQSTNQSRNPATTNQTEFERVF
T1 sequence (O60563 whole entry partner): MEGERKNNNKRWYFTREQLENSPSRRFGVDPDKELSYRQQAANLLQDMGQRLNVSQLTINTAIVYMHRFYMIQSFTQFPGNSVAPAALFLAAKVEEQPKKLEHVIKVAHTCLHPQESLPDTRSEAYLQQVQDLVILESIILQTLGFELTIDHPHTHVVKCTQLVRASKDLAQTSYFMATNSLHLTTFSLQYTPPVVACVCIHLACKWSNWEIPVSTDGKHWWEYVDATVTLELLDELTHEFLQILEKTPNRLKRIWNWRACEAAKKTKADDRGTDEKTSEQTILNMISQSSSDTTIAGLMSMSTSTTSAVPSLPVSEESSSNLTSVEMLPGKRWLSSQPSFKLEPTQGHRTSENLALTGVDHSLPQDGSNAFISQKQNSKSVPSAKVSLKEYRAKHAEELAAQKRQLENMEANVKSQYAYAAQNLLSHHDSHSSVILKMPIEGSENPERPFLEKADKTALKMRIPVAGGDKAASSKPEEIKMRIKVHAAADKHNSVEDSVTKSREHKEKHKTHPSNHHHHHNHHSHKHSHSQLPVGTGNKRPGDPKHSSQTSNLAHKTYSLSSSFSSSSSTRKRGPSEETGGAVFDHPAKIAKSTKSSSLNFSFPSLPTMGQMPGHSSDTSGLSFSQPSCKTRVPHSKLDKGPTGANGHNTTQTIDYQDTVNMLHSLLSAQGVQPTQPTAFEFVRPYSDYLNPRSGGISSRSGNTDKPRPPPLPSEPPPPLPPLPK
Procedure: (§1) Kinase activity was assessed using the kinase assay kits from BPS Bioscience for CDK1, CDK9 and CDK12 with Kinase Glo MAX in duplicates. Compounds were tested at a single concentration of 1 μM for CDK1 and CDK9 activity, and in a dilution ranging from 0.64 nM to 50 μM for CDK12 activity. Chemiluminescence was read using the Neo Synergy BioTek plate reader.

[1] = tested on: OCI-AML5 cells expressing shRNAs targeting CDK1, 2, 4, 7, 9, cyclin K; assay: Dose response in OCI-AML5 expressing shRNAs targeting CDK1, 2, 4, 7, 9, cyclin K or control; format: cell-based, H. sapiens; conditions: for IC50: OCI-AML5, 4 days
CDK12/Cyclin K = target: T2, CDK12/Cyclin K (Homo sapiens, UniProt Q9NYV4); assay: CDK12/CyclinK in vitro kinase assay (BPS kit, Kinase Glo MAX); format: biochemical; conditions: in % (unit assumed)
T2 construct: purchased BPS Bioscience 78298
T2 sequence (Q9NYV4 whole entry): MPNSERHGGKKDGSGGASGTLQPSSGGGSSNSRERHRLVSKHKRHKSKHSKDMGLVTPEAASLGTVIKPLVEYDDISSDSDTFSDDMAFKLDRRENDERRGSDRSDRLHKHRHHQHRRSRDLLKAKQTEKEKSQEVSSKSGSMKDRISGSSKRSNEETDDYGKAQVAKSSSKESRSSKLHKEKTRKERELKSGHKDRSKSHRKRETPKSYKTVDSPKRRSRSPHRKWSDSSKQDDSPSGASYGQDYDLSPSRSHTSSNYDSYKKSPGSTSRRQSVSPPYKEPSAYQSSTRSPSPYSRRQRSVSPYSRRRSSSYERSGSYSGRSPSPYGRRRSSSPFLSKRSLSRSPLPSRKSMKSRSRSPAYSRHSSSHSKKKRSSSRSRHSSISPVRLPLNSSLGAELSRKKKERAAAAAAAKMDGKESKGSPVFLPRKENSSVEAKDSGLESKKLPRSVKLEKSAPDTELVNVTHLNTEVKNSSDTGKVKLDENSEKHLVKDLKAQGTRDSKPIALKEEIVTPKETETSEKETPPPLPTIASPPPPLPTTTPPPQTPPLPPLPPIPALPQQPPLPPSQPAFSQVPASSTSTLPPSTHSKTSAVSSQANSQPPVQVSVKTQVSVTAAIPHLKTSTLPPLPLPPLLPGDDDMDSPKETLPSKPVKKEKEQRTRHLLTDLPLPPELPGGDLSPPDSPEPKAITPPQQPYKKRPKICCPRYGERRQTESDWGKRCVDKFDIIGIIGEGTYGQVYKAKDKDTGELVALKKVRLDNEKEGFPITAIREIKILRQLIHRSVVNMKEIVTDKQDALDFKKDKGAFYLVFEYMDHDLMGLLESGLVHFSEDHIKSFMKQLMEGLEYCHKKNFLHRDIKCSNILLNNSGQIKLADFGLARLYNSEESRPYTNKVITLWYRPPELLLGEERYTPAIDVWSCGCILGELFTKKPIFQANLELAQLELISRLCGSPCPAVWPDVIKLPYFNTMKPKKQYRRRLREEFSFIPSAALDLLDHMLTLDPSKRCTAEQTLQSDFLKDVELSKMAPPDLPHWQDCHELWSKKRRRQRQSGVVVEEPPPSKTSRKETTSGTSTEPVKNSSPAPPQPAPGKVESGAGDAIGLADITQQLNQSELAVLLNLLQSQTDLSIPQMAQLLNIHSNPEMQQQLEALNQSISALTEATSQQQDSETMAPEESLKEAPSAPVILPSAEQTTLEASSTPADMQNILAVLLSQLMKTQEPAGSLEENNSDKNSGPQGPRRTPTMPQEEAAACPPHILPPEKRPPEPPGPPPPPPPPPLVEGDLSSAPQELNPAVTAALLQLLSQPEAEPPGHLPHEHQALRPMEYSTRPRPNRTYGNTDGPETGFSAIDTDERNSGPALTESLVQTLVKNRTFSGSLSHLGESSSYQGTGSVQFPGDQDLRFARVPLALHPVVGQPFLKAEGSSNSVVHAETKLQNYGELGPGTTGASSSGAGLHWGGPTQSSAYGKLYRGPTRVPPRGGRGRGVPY
T2 sequence (O75909 whole entry partner): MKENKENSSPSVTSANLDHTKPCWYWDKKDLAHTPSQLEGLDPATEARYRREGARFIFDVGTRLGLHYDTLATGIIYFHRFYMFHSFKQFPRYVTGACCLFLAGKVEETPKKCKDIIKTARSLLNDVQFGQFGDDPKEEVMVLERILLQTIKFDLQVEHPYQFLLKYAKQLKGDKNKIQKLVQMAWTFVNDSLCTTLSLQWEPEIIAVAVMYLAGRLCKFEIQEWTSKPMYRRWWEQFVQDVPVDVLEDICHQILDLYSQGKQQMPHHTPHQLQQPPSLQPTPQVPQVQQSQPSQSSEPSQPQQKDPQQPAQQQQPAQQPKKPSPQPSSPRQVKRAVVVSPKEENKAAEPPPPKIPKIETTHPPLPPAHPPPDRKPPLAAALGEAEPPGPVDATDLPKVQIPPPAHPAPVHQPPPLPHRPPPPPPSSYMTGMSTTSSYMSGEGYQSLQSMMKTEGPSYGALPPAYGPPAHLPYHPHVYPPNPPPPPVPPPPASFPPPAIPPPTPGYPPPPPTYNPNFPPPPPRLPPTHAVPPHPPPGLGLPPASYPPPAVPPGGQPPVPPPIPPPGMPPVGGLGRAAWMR
Procedure: as §1

IC50 (OCI-AML5 cells): 56 nM | % CDK9 inhibition (CDK9/CyclinT): 100% | IC50 ([1]; read-out: IC50, sh CDK1): 69.6 nM and 111 nM and 91.9 nM | IC50 ([1]; read-out: IC50, sh CDK2): 67.6 nM and 80.5 nM and 96.4 nM | IC50 ([1]; read-out: IC50, sh CDK4): 61.8 nM and 75.2 nM and 63.5 nM | IC50 ([1]; read-out: IC50, sh CDK7): 61.1 nM and 84.1 nM and 69.1 nM | IC50 ([1]; read-out: IC50, sh CDK9): 55.2 nM and 60.8 nM and 44.9 nM | IC50 ([1]; read-out: IC50, sh Cyclin K): 13.1 nM and 15.5 nM and 20.6 nM | IC50 ([1]; read-out: IC50, sh ctrl): 55.8 nM and 70.4 nM and 56.2 nM | in vitro inhibition of CDK12/Cyclin K activity (CDK12/Cyclin K; Log10 (uM) 1): 58.77 and 64.89 and 109.89 | in vitro inhibition of CDK12/Cyclin K activity (CDK12/Cyclin K; Log10 (uM) 1.69897): 81.16 and 77.06 and 130.98 | in vitro inhibition of CDK12/Cyclin K activity (CDK12/Cyclin K; Log10 (uM) -0.39794): 16.88 and 18.59 and 15.49
SMILES: CC[C@H](CO)Nc1nc(NCc2ccc(-c3ccccn3)cc2)c2ncn(C(C)C)c2n1 [CR8]
IC50 (primary AML specimens; primary AML specimen 03H109): 48.5 nM | IC50 (primary AML specimens; primary AML specimen 04H055): 123 nM | IC50 (primary AML specimens; primary AML specimen 04H096): 55 nM | IC50 (primary AML specimens; primary AML specimen 04H138): 127 nM | IC50 (primary AML specimens; primary AML specimen 05H113): 48.9 nM | IC50 (primary AML specimens; primary AML specimen 05H149): 66.3 nM | IC50 (primary AML specimens; primary AML specimen 05H193): 63.3 nM | IC50 (primary AML specimens; primary AML specimen 06H088): 74.7 nM | IC50 (primary AML specimens; primary AML specimen 06H117): 60.2 nM | IC50 (primary AML specimens; primary AML specimen 06H151): 43 nM | IC50 (primary AML specimens; primary AML specimen 07H003): 129 nM | IC50 (primary AML specimens; primary AML specimen 07H131): 154 nM | IC50 (primary AML specimens; primary AML specimen 07H144): 51.9 nM | IC50 (primary AML specimens; primary AML specimen 07H155): 144 nM | IC50 (primary AML specimens; primary AML specimen 08H018): 124 nM | IC50 (primary AML specimens; primary AML specimen 08H021): 53.6 nM | IC50 (primary AML specimens; primary AML specimen 08H056): 136 nM | IC50 (primary AML specimens; primary AML specimen 08H063): 149 nM | IC50 (primary AML specimens; primary AML specimen 08H085): 63.1 nM | IC50 (primary AML specimens; primary AML specimen 08H108): 126 nM | IC50 (primary AML specimens; primary AML specimen 08H118): 50.2 nM | IC50 (primary AML specimens; primary AML specimen 09H016): 51.5 nM | IC50 (primary AML specimens; primary AML specimen 09H070): 140 nM | IC50 (primary AML specimens; primary AML specimen 10H014): 38.9 nM | IC50 (primary AML specimens; primary AML specimen 10H046): 59.9 nM | IC50 (primary AML specimens; primary AML specimen 10H107): 76.8 nM | IC50 (primary AML specimens; primary AML specimen 10H127): 93.5 nM | IC50 (primary AML specimens; primary AML specimen 10H161): 75.2 nM | IC50 (primary AML specimens; primary AML specimen 10H174): 54.8 nM | IC50 (primary AML specimens; primary AML specimen 11H008): 85.8 nM | IC50 (primary AML specimens; primary AML specimen 11H019): 69.4 nM | IC50 (primary AML specimens; primary AML specimen 11H170): 162 nM | IC50 (primary AML specimens; primary AML specimen 11H217): 128 nM | IC50 (primary AML specimens; primary AML specimen 11H232): 70.1 nM | IC50 (primary AML specimens; primary AML specimen 12H033): 107 nM | IC50 (primary AML specimens; primary AML specimen 12H055): 100 nM | IC50 (primary AML specimens; primary AML specimen 12H148): 74.2 nM | IC50 (primary AML specimens; primary AML specimen 13H053): 133 nM | IC50 (primary AML specimens; primary AML specimen 15H045): 43.7 nM | IC50 (primary AML specimens; primary AML specimen 17H065): 92.3 nM | MFI of cyclin KeGFP over mCherry (cyclin KeGFP; OCI-AML5 G7 clone, 3 h, 10 μM, normalized to DMSO (=100)): 13.6 and 15.4 and 15.2 and 15.3 and 14.9 | % degradation cyclin K-eGFP (cyclin KeGFP; cyclin K-eGFP reporter): 86% | Class ([1]; class from shRNA IC50 profile and cyclin K-eGFP degradation): 1
